# Where two headings read alike, the source gives them in different places.
# Assays:
# [1] = system: GBM1A cells; assay: In vitro cytotoxicity assay (CellTiter-Glo, 72 hours); assay type: cell-based, human; details: for EC50: Homo sapiens, 72 h, 72 hours, read-out: Ispinesib EC50
# Experimental: (§1) TP53(−/−) and PTEN(−/−) cells were seeded into 96-well plates (pre-coated with fibronectin) at a density of 5,000 cells per well in DMEM media with 0.5% FBS, 1% nitrogen supplement, 10 ng/ml of FGF and 10 ng/ml of PDGFAA. Human GBM1A cells were seeded into 96 well plates (pre-coated with laminin) in DMEM media with 1% neuroPlex supplement, 20 ng/ml of EGF and 20 ng/ml of […]. After 24 hours (~70% confluency), cells were exposed to ispinesib (n = 10 wells per concentration) from 0.025–1000 nM with or without 500 nM elacridar co-treatment. The plates were incubated for 72 hours, cell viability measured using CellTiter-Glo ATP-based assay, and read on a luminometer. The dose-response data were fit to the Hill equation.
# (§2) In vitro potency data was fitted to “log(inhibitor) vs. normalized response - variable slope” equation in GraphPad Prism version 6.04 (GraphPad, La Jolla, CA) to determine half-maximal effective concentration (EC50).
# [2] = GBM-bearing rats; for Fold increase in Kp over the Kp in normal brain of ispinesib treated group: 10 mg/kg ip, 2 hours; for increase in Kp when elacridar is co-administered with ispinesib: vs ispinesib alone
# Experimental: (§3) Blood and brain (tumor-bearing) samples were collected at 2 hours post-dose, and whole brains were immediately flash frozen.
# (§4) A fluorescence-guided punch biopsy technique (Supplementary Fig. S2) was developed and employed for isolation of tumor core, tumor rim (brain adjacent to tumor, BAT) and normal (non-tumor) brain regions from brain samples. Briefly, an acrylic adult rat brain matrix (WPI) was used to obtain thick coronal brain sections (1–2 mm thick) through the Td-Tomato labelled tumors. The tumor regions were identified by relative fluorescence signal (Nikon AZ100M microscope), and biospy punches with varying diameters were utilized to isolate tumor core (tumor region with fluorescence signal 5-fold or higher relative to background signal) and rim (region adjacent to tumor core with fluorescence signal 3 to 5-fold higher relative to background) (Supplementary Fig. S3). The samples from individual brains were pooled together for analysis of ispinesib concentrations by LC-MS/MS.
# (§5) The tumor-bearing brain samples were harvested at 2 hours post dose (n = 9). Coronal sections that were 1-2 mm thick were obtained using an acrylic brain matrix, and a fluorescence microscopy guided punch biopsy method was utilized for the isolation of tumor core, tumor rim (brain adjacent to tumor, BAT) and normal (non-tumor) brain regions. The tumor core was identified as the tumor region with a fluorescence signal that was 5-fold or higher relative to the background signal. The tumor rim was defined as the region around the tumor core with a fluorescence signal 3 to 5-fold higher relative to the background signal. The brain tissue with a fluorescence signal similar to or lower than the background fluorescence was collected as the normal brain. The samples collected from each brain were pooled together, and ispinesib concentrations were determined using LC-MS/MS.
# [3] = system: TP53(-/-) GBM cells; assay: In vitro cytotoxicity assay (CellTiter-Glo, 72 hours); assay type: cell-based, murine; details: for EC50: Mus musculus, 72 h, 72 hours, read-out: Ispinesib EC50
# Experimental: as §1, §2
# [4] = system: PTEN(-/-) GBM cells; assay: as above; assay type: cell-based, murine; details: for EC50: Mus musculus, 72 h, 72 hours, read-out: Ispinesib EC50
# Experimental: as §1, §2
# [5] = system: orthotopic GBM1A tumors; assay type: in vivo; details: 10 mg/kg ip each drug once every 4 days for 28 days
# Experimental: Female NSG mice were intracranially implanted with 500,000 luciferase expressing GBM1A cells (transduced with lentiviral particles expressing GFP-Luciferase). After 7 days, animals were randomized into four groups and ip administered with microemulsion vehicle, 10 mg/kg elacridar, 10 mg/kg ispinesib, or a combination of 10 mg/kg ispinesib and 10 mg/kg elacridar, once every 4 days for 28 days (n = 10). The dosing schedule of once every 4 days was based on our previously publication with ispinesib. Tumor growth was monitored by bioluminescence imaging and animals were followed for survival.
# The progression of tumor growth was monitored by bioluminescence imaging (BLI) using an IVIS system. Mice that underwent stereotactic injection with GFP-luciferase expressing GBM1A cells were imaged twice a week. Ten minutes prior to imaging, mice were intraperitoneally injected with d-luciferin at 75 mg/kg body weight (3 mL/kg injection volume). Animals were immobilized using 1.5% − 3.0% isoflurane provided by nose cones within the imager and were kept warm using a heated stage set at 37 °C during the imaging procedure. Following imaging for about 5 minutes, animals were removed from the IVIS chamber and monitored until they fully recovered from anesthesia.
# [6] = in vivo; details: FVB, mouse, iv, 5 mg/kg
# Experimental: A single intravenous bolus dose of 5 mg/kg ispinesib (vehicle: ethanol, Tween 80 and distilled water in volume ratio of 20:2.5:77.5) was administered to FVB wild-type and Mdr1a/b^−/− Bcrp1^−/− mice. This was followed by collection of whole blood and brain samples at 0.17, 0.5, 1, 2, 4, 8 and 15 hours post-dose, and blood samples were centrifuged to separate plasma for further analysis. […] The drug concentrations in all samples were measured by a specific and sensitive LC-MS/MS assay for ispinesib.
# (§6) All dosing solutions were prepared on the day of the study. A serial sacrifice (destructive sampling) design was employed for sample collection. In all the pharmacokinetic studies conducted in non-tumor bearing FVB mice, the group size was 4 at each sampling time point (n = 4). At pre-determined time points, mice were euthanized using a carbon dioxide chamber. Blood was collected by cardiac puncture and transferred to sample tubes coated with heparin. The whole brain was isolated from skull and rinsed with ice-cold distilled water, and superficial meninges were removed by blotting with tissue paper. Plasma was separated by centrifugation of blood samples at 3500 rpm and 4°C for 15 minutes. […] All the samples were stored at -80°C, until further analysis. The concentrations of ispinesib in all the samples were analyzed by LC-MS/MS. Assuming a vascular volume of 1.4% in mouse brain ^5, the concentrations in brain were corrected for residual drug in brain vasculature.
# Kp=AUCbrainAUCplasma (Equation 3)
# DA= Kp, knockoutKp, wildtype (Equation 5)
# Kp,uu=AUCbrain X fu, brain AUCplasma X fu, plasma (Equation 6)
# The pharmacokinetic parameters from the concentration-time profiles in plasma and brain were determined by non-compartmental analysis (NCA) using Phoenix WinNonlin version 6.4 (Certara USA, Inc., Princeton, NJ). The AUCplasma and AUCbrain were calculated using the linear trapezoidal method. The standard errors around the mean of AUC was estimated by the sparse sampling module in WinNonlin ^6.
# [7] = FVB wild-type; for Fold increase in Kp: 10 mg/kg i.p. ispinesib with or without 10 mg/kg i.p. elacridar; for increase of brain-to-plasma concentration ratio / brain delivery of ispinesib with elacridar co-administration: 10 mg/kg ip ispinesib + 10 mg/kg elacridar vs ispinesib alone, 2 and 6 hours, 10 mg/kg
# Experimental: (§7) Blood and brain specimens were harvested at 2 and 6 hours post-dose.
# as §6
# Kp=CbrainCplasma (Equation 4)
# [8] = system: orthotopic GBM1A tumors; assay: Pharmacodynamics: monopolar spindle formation in orthotopic GBM1A tumors; assay type: in vivo, NSG mice; details: single ip dose 10 mg/kg each drug; 8 hours
# Experimental: Female NSG mice were intracerebrally injected with 500,000 GBM1A cells at coordinates X = 1.5 mm, Y = 1.5 mm and Z = 2.5 mm relative to the bregma, and tumor growth was monitored by bioluminescence imaging. After 4 weeks (tumor size of about 2 × 10^9 photons/sec), animals were randomized to receive single ip dose of microemulsion vehicle, 10 mg/kg elacridar, 10 mg/kg ispinesib, or a combination of 10 mg/kg ispinesib and 10 mg/kg elacridar (n = 8–10). At 8 hours following treatment, mice were perfused and whole brains were isolated. The samples were processed for immunofluorescence by staining for tubulin with an alpha-tubulin antibody (Cell signaling, Cat#2125) and counter staining with DAPI for visualizing nuclei. Images were scanned and counted for cells with monopolar spindles.
# [9] = in vivo; details: Sprague-Dawley, rat, ip, 10 mg/kg
# Experimental: as §3, §4, §5
# [10] = in vivo; details: FVB, mouse, 10 mg/kg; for concentration at 2 h / concentration at 6 h: intraperitoneal
# Experimental: as §7, §6
# Kp=CbrainCplasma (Equation 4)
# [11] = 5 mg/kg iv bolus, Mdr1a/b-/- Bcrp1-/- mice
structure (smiles),measurement,setting,value
"Cc1ccc(C(=O)N(CCCN)[C@@H](c2nc3cc(Cl)ccc3c(=O)n2Cc2ccccc2)C(C)C)cc1 [Ispinesib, N-(3-aminopropyl)-N-[(1 R)-1-(3-benzyl-7-chloro-4-oxoquinazolin-2-yl)-2-methylpropyl]-4-methylbenzamide]",EC50,[1]; [Elacridar] 0 nM,1.4 ± 0.2 nM
same,EC50,[1]; [Elacridar] 500 nM,0.5 ± 0.04 nM
same,Hill Coefficient,[1]; [Elacridar] 0 nM,1.8 ± 0.3
same,Hill Coefficient,[1]; [Elacridar] 500 nM,1.7 ± 0.2
same,Fold increase in Kp over the Kp in normal brain of ispinesib treated group,[2]; Normal brain,1
same,Fold increase in Kp over the Kp in normal brain of ispinesib treated group,[2]; Tumor core,7
same,Fold increase in Kp over the Kp in normal brain of ispinesib treated group,[2]; Tumor rim,2.5
same,increase in Kp when elacridar is co-administered with ispinesib,[2]; tumor core,4 fold
same,increase in Kp when elacridar is co-administered with ispinesib,[2]; tumor rim and normal brain regions,approximately 10 fold
same,EC50,[3]; [Elacridar] 0 nM,14.4 ± 1.2 nM
same,EC50,[3]; [Elacridar] 500 nM,3.9 ± 0.5 nM
same,Hill Coefficient,[3]; [Elacridar] 0 nM,0.6 ± 0.02
same,Hill Coefficient,[3]; [Elacridar] 500 nM,0.4 ± 0.01
same,EC50,[4]; [Elacridar] 0 nM,10 ± 0.9 nM
same,EC50,[4]; [Elacridar] 500 nM,3.3 ± 0.4 nM
same,Hill Coefficient,[4]; [Elacridar] 0 nM,0.6 ± 0.02
same,Hill Coefficient,[4]; [Elacridar] 500 nM,0.4 ± 0.01
same,"tumor doubling time (bioluminescence, single exponential fit)",[5]; days 7–37,9.4 days
same,median survival,[5]; vehicle 61 days,74 days
same,Kp uu,[6]; brain and plasma,0.02
same,Kp uu,[6]; brain/plasma,1
same,AUC(0-inf),[6]; plasma,5800 ng·h/mL
same,AUC(0-t),[6]; plasma,7500 ± 400 ng·h/mL
same,clearance,[6]; plasma,9.9 mL/min/kg
same,half-life,[6]; plasma,4.8 h
same,Fold increase in Kp,[7]; 2 hrs,1
same,Fold increase in Kp,[7]; 6 hrs,1
same,increase of brain-to-plasma concentration ratio / brain delivery of ispinesib with elacridar co-administration,[7],approximately 10 fold
same,increase of brain-to-plasma concentration ratio / brain delivery of ispinesib with elacridar co-administration,[7]; listed as ispinesb,10 fold
same,monopolar spindles in tumor core (tubulin/DNA staining),[8],occasional monopoles
same,Kp at 2 h,[9]; normal brain,0.11 ± 0.09
same,concentration at 2 h,[9]; normal brain,60 ± 40 ng/mL
same,Kp at 2 h,[9]; tumor core,0.77 ± 0.55
same,concentration at 2 h,[9]; tumor core,380 ± 240 ng/mL
same,Kp at 2 h,[9]; tumor rim,0.27 ± 0.18
same,concentration at 2 h,[9]; tumor rim,150 ± 110 ng/mL
same,predicted unbound concentrations in the brain compared with in vitro EC50 against GBM1A,"5 mg/kg intravenous, FVB wild-type mice, from in vivo concentrations and fu",appreciably below the EC50
same,"Kp, brain-to-plasma AUC ratio (total drug)",[11],12.12
same,"Kp,uu, unbound partition coefficient",[11],1.01
same,"Kp, brain-to-plasma AUC ratio (total drug)","5 mg/kg iv bolus, wild-type mice",0.23
same,Kp at 2 h,"[10]; brain and plasma, ip",0.1 ± 0.08
same,Kp at 6 h,"[10]; brain and plasma, ip",0.38 ± 0.14
same,concentration at 2 h,[10]; brain,80 ± 20 ng/mL
same,concentration at 6 h,[10]; brain,270 ± 90 ng/mL
same,concentration at 2 h,[10]; plasma,1110 ± 570 ng/mL
same,concentration at 6 h,[10]; plasma,730 ± 110 ng/mL
